Experiments:
[1] = system: Human mammary carcinoma (MX-1) tumor cells; assay: In vitro cytotoxicity, SRB assay, 72-hr incubation; conditions: Homo sapiens, 72 h, read-out: Cytotoxicity IC50, MX-1
[2] = system: CCRF-CEM/Taxol; assay: In vitro cytotoxicity, XTT assay, taxol-resistant subline; conditions: Homo sapiens, CCRF-CEM, 72 h, read-out: Cytotoxicity IC50, CCRF-CEM/Taxol
[3] = system: Human colon carcinoma HCT-116 cells; assay: cells; conditions: HCT-116, 72 h, read-out: Cytotoxicity IC50, HCT-116
[4] = system: CCRF-CEM human lymphoblastic leukemia cells; assay: cells; conditions: 72 h, read-out: Cytotoxicity IC50, CCRF-CEM

## O=C(Nc1ccc(N(CCCl)CCCl)cc1)Nc1c2ccccc2nc2ccccc12 [BO-1034, 1-acridin-9-yl-3-{4-[bis(2-chloroethyl)amino]phenyl}urea]
[1]
  IC50: 810 nM
[2]
  IC50: 390 nM
[3]
  IC50: 900 nM
[4]
  IC50: 230 nM

## COc1ccc(Nc2c3ccccc3nc3ccccc23)cc1NC(=O)Nc1ccc(N(CCCl)CCCl)cc1 [BO-1148]
[1]
  IC50: 1200 nM
[2]
  IC50: 30 nM
[3]
  IC50: 260 nM
[4]
  IC50: 10 nM

## Cc1ccc(NC(=O)Nc2ccc(N(CCCl)CCCl)cc2)cc1Nc1c2ccccc2nc2c(C)cccc12 [BO-1149]
[1]
  IC50: 590 nM
[2]
  IC50: 20 nM
[3]
  IC50: 160 nM
[4]
  IC50: 10 nM

## COc1ccc(Nc2c3ccccc3nc3c(C)cccc23)cc1NC(=O)Nc1ccc(N(CCCl)CCCl)cc1 [BO-1154]
[1]
  IC50: 370 nM
[2]
  IC50: 10 nM
[3]
  IC50: 70 nM
[4]
  IC50: 10 nM

## Cc1ccc(Nc2c3ccccc3nc3ccccc23)cc1NC(=O)Oc1ccc(N(CCCl)CCCl)cc1 [BO-1171]
[1]
  IC50: 210 nM
[2]
  IC50: 220 nM
[3]
  IC50: 430 nM
[4]
  IC50: 80 nM

## COc1ccc(Nc2c3ccccc3nc3ccccc23)cc1NC(=O)Oc1ccc(N(CCCl)CCCl)cc1 [BO-1172]
[1]
  IC50: 180 nM
[2]
  IC50: 160 nM
[3]
  IC50: 190 nM
[4]
  IC50: 90 nM

## COc1ccc(Nc2c3ccccc3nc3c(C)cccc23)cc1NC(=O)Oc1ccc(N(CCCl)CCCl)cc1 [BO-1213]
[1]
  IC50: 140 nM
[2]
  IC50: 30 nM
[4]
  IC50: 20 nM

## COc1ccc2nc(C)cc(NNC(=O)Nc3ccc(N(CCCl)CCCl)cc3)c2c1 [BO-1228, N-{4-[bis(2-chloroethyl)amino]phenyl}-2-(6-methoxy-2-methyl-4-quinolinyl)hydrazinecarboxamide]
[1]
  IC50: 260 nM
[2]
  IC50: 1540 nM
[3]
  IC50: 260 nM
[4]
  IC50: 200 nM

## Cc1cc(NC(=O)Nc2ccc(N(CCCl)CCCl)cc2)c2cc(N(C)C)ccc2n1 [BO-1231]
[1]
  IC50: 180 nM
[2]
  IC50: 310 nM
[3]
  IC50: 300 nM
[4]
  IC50: 110 nM

## Cc1cc(NNC(=O)Nc2ccc(N(CCCl)CCCl)cc2)c2ccccc2n1 [BO-1233, N-{4-[bis(2-chloroethyl)amino]phenyl}-2-(2-methyl-4-quinolinyl)hydrazinecarboxamide]
[1]
  IC50: 360 nM
[2]
  IC50: 1830 nM
[3]
  IC50: 380 nM
[4]
  IC50: 120 nM

## Cc1cc(NNC(=O)Nc2ccc(N(CCCl)CCCl)cc2)c2cc(N(C)C)ccc2n1 [BO-1242]
[1]
  IC50: 280 nM
[2]
  IC50: 4190 nM
[3]
  IC50: 150 nM
[4]
  IC50: 60 nM

## O=C(NNc1cc(-c2ccccc2)nc2cc3c(cc12)OCO3)Nc1ccc(N(CCCl)CCCl)cc1 [BO-1391]
[1]
  IC50: 1020 nM
[2]
  IC50: 570 nM
[3]
  IC50: 2020 nM
[4]
  IC50: 260 nM

## O=C(NNc1cc(-c2ccccc2)nc2ccccc12)Nc1ccc(N(CCCl)CCCl)cc1 [BO-1393]
[1]
  IC50: 1780 nM
[2]
  IC50: 910 nM
[3]
  IC50: 1260 nM
[4]
  IC50: 580 nM

## O=C(Nc1ccc(Nc2cc(-c3ccccc3)nc3ccccc23)cc1)Nc1ccc(N(CCCl)CCCl)cc1 [BO-2294]
[4]
  IC50: 3010 nM

## O=C(Nc1ccc(N(CCCl)CCCl)cc1)Nc1cccc(Nc2cc(-c3ccccc3)nc3ccccc23)c1 [BO-2295]
[4]
  IC50: 1860 nM

## CC(=O)O[C@H]1C(=O)[C@@]2(C)[C@H]([C@H](OC(=O)c3ccccc3)[C@]3(O)C[C@H](OC(=O)[C@H](O)[C@@H](NC(=O)c4ccccc4)c4ccccc4)C(C)=C1C3(C)C)[C@]1(OC(C)=O)CO[C@@H]1C[C@@H]2O [Taxol, reference compound]
[1]
  IC50: 40 nM
[2]
  IC50: 430 nM

## CC[C@]1(O)C[C@@H]2CN(CCc3c([nH]c4ccccc34)[C@@](C(=O)OC)(c3cc4c(cc3OC)N(C)[C@H]3[C@@](O)(C(=O)OC)[C@H](OC(C)=O)[C@]5(CC)C=CCN6CC[C@]43[C@@H]65)C2)C1 [Vinblastine, reference compound]
[2]
  IC50: 80 nM
